Our source for the melting point values is the Bradley open melting point set (2014).

One may read the melting point as the temperature, or range, at which the solid turns liquid.

Structures are written as SMILES. Values joined by “and” are separate entries in the source; they are usually repeats but may differ in a detail not shown here. Equal entries are not always repeated.

`C/C=C\C(C)(C)C` [4,4-dimethyl-cis-2-pentene] gave a melting point of -135 °C.
The same measure for `O=C(O)/C=C/c1ccccc1` [(2E)-3-Phenylacrylic acid]: 133 °C.
To `CCCCc1ccc(C(=O)O)cc1` [4-butylbenzoic_acid] belongs 100 °C; to `CCCCOc1cc(C(=O)NCCN(CC)CC)c2ccccc2n1` [dibucaine], 64.5 °C; to `O=c1ncnc2n(C3CCCCC3)[nH]cc1-2` [1-cyclohexyl-1,2-dihydro-4H-pyrazolo[3,4-d]pyrimidin-4-one], 252 °C.
The same measure for `OCc1ccccc1Br` [o-bromobenzyl alcohol]: 81 °C.
`CC(=O)N[C@H]1C(O)O[C@H](CO)[C@@H](O)[C@@H]1O` (stereo partly drawn) [N-Acetyl-D-glucosamine] registered a melting point of 205 °C.
To `CC(=O)c1cc(O)ccc1O` [2',5'-dihydroxyacetophenone] belongs 206 °C; to `Nc1nc(N)c2nc(-c3ccccc3)c(N)nc2n1` [Triamterene], 306 °C; to `C[C@@H]1CN[C@@H](C)CN1` [trans-2,5-dimethylpiperazine], 117 °C.
Take `IC(I)I` [Iodoform]: the melting point was found to be 122 °C.
`COC(=O)c1ccc(C=O)cc1` [methyl 4-formylbenzoate] registered a melting point of 61 °C.
Consider `Nc1ccc([N+](=O)[O-])cc1N` [4-nitro-o-phenylenediamine], for which the melting point is 201 °C.
The same measure for `CCOc1ccc(Br)cc1` [4-bromophenetole]: 4 °C.
The same measure for `Nc1nc2c(ncn2[C@@H]2O[C@@H](CO)[C@H](O)[C@H]2O)c(=O)[nH]1` [Guanosine]: 239 °C.
To `Cc1cc(C)cc(C)c1` [Mesitylene] belongs -45 °C; to `O=C(O)CCC(=O)c1ccc(Br)cc1` [3-(4-bromobenzoyl)propionic acid], 147 °C; to `C=CCC1(CC(C)C)C(=O)NC(=O)NC1=O` [butalbital], 140 °C.
Compound `[C-]#[N+]CS(=O)(=O)c1ccc(C)cc1` [p-toluenesulfonylmethyl isocyanide] showed a melting point of 112 °C.
Compound `C=Cc1cccc(C(=O)O)c1` [m-vinylbenzoic_acid] had a melting point of 96 °C.
To `COc1ccc(C(N)=O)cc1` [4-methoxybenzamide] belongs 166 °C; to `C=C(C)C(=O)OCCCC` [Butyl methacrylate], -50 °C.
The same measure for `COc1ccc(C=O)cc1OC` [3,4-dimethoxybenzaldehyde]: 44 °C; for `Nc1cc(Cl)c(O)c(Cl)c1` [4-Amino-2,6-dichlorophenol]: 168 °C; for `CCOC(=O)c1ccc(CBr)cc1` [ethyl 4-(bromomethyl)benzoate]: 31 °C.
The same measure for `CC(=O)C1C(=O)C=C(C)OC1=O` (stereo unspecified) [dehydroacetic acid]: 111 °C; for `CC(C(=O)O)c1ccc(-c2ccccc2)c(F)c1` (stereo unspecified) [flurbiprofen]: 110 °C; for `C[C@H]1CC[C@@H](C)CC1` [cis-1,4-dimethylcyclohexane]: -87 °C.
Consider `Cc1ccc(-n2c(C)cc(C=O)c2C)cc1` [OSM-S-29], for which the melting point stood at 110 °C.
Regarding `CCOC(=O)c1cc(-c2ccccc2)n(-c2ccc(Cl)cc2Cl)n1`, the melting point worked out at 124 °C.
Turning to `COc1ccccc1O` [2-methoxyphenol], the melting point is 30 °C.
Compound `CC[C@H](C)C(=O)O[C@H]1C[C@@H](C)C=C2C=C[C@H](C)[C@H](CC[C@@H]3C[C@@H](O)CC(=O)O3)[C@H]21` [Lovastatin] gave a melting point of 174 °C.
`CCCCOC(=O)c1ccc(O)cc1` [butyl 4-hydroxybenzoate] came in with a melting point of 69 °C.
The same measure for `O=C(O)/C=C/c1ccc(F)c(F)c1` [3,4-difluorocinnamic acid]: 195 °C.
To `CN1C(C(=O)Nc2ccccn2)=C(O)c2ccccc2S1(=O)=O` [piroxicam] belongs 200 °C and 199 °C; to `O=C1c2ccccc2CC1Br` (stereo unspecified) [2-bromo-1-indanone], 38 °C.
To `N#Cc1ccc2c(c1)N(CCCN1CCC(O)CC1)c1ccccc1S2` [Propericiazine (JAN)] belongs 82 °C; to `Cc1ccc2[nH]cnc2c1` [5-methylbenzimidazole], 115 °C.
Turning to `CCOCCOC(C)=O` [2-ethoxyethyl_acetate], the melting point is -61 °C.
For the compound `CC/C=C/CC` [trans-3-hexene], the melting point is -113 °C.
The same measure for `O=C(O)CCc1ccccc1`: 49 °C; for `OC[C@@H](O)[C@@H](O)[C@H](O)[C@H](O)CO` [D-Mannitol]: 167 °C; for `COc1ccc(C(C)=O)cc1OC` [3,4-dimethoxyacetophenone]: 51 °C.
As for `O=C(O)c1cc(/N=N/c2ccc(S(=O)(=O)Nc3ccccn3)cc2)ccc1O` [Sulfasalazine], the melting point came to 220 °C.
As to `C=CCN1C(=O)C(CC(C)C)NC1=S` (stereo unspecified) [albutoin], the melting point came out at 210 °C.
To `S=C=S` [carbon disulfide] belongs -112 °C; to `COc1ccc2c(c1)c(CC(=O)OCC(=O)O)c(C)n2C(=O)c1ccc(Cl)cc1` [acemetacin], 150 °C; to `NC(=O)c1ccc(Cl)cc1Cl` [2,4-dichlorobenzamide], 192 °C.
In the case of `O=C1CC(=O)NC(=O)N1` [Barbituric acid], the melting point was 248 °C.
Compound `O=C(C[C@H](NC(=O)OCc1ccccc1)C(=O)O)OCc1ccccc1` [N-benzyloxycarbonyl-l-aspartic acid 4-benzyl ester] returned a melting point of 106 °C.
On to `ClC(Cl)Cl` [Chloroform], for which the melting point was -63 °C.
The same measure for `CC(C)(C)c1ccc(C(C)(C)C)cc1` [p-di-tert-butylbenzene]: 74 °C; for `CC(C)(S)[C@@H](N)C(=O)O` [penicillamine]: 204 °C.
To `Cc1nnc2n1-c1ccc(Cl)cc1C(c1ccccc1Cl)=NC2` [Triazolam] belongs 234 °C; to `O=Cc1cc(O)ccc1O` [2,5-dihydroxybenzaldehyde], 99 °C.
To `IC(I)I` [iodoform] belongs 122 °C; to `ClC=C(Cl)Cl` [trichloroethylene], -85 °C; to `Sc1ccccc1` [thiophenol], -15 °C.
`Nc1ccc(N=Nc2ccccc2)c(N)n1` [phenazopyridine] showed a melting point of 139 °C.
The same measure for `O=[N+]([O-])c1ccc(CCl)cc1` [4-nitrobenzyl chloride]: 72 °C; for `CC12CCC(C(=CC=C3C(=O)C4(C)CCC3C4(C)C)C1=O)C2(C)C`: 240 °C; for `O=C1CCC(c2ccc(Br)cc2)=NN1` [6-(4-bromophenyl)-4,5-dihydro-3(2h)-pyridazinone]: 169 °C.
The same measure for `CCCCC(=O)O` [valeric acid]: -34 °C; for `Oc1cccc2ccc3cccnc3c12` [10-hydroxybenzo[h]quinoline]: 104 °C.
`NC(=O)C12CC3CC(CC(C3)C1)C2` [adamantane-1-carboxamide] came in with a melting point of 187 °C.
The same measure for `C[C@@H](N)C(=O)O` [d-alanine]: 291 °C.
Regarding `[O-][n+]1ccc(OCc2ccccc2)cc1` [4-benzyloxypyridine n-oxide], the melting point came to 174 °C.
To `COC(=O)c1ccc(/C=C\c2ccc(C(=O)OC)cc2)cc1` [dimethyl cis-stilbene-4,4'-dicarboxylate] belongs 113 °C; to `c1ccc2c(c1)ccc1ccccc12` [phenanthrene], 100 °C.
On to `CCCCC(=O)O` [pentanoic_acid], for which the melting point is -34 °C.
The same measure for `O[C@H]1CCCC[C@@H]1O` (relative stereo) [trans-1,2-cyclohexanediol]: 104 °C.
To `O=C(CCl)c1ccc(O)c(O)c1` [2-chloro-3',4'-dihydroxyacetophenone] belongs 174 °C; to `OB(O)c1cc(Cl)cc(Cl)c1Cl` [2,3,5-trichlorobenzeneboronic acid], 245 °C.
The same measure for `CC(=O)ON(/C=C1\C(=O)C2(C)CCC1C2(C)C)c1ccccc1` (stereo unspecified): 163 °C; for `CCC1(CCC(C)C)C(=O)NC(=O)NC1=O` [amobarbital]: 157 °C; for `CC(=O)c1ccc(I)cc1` [1-(4-Iodophenyl)ethanone]: 84.8 °C and 85.3 °C.
`CCCCCc1ccc(B(O)O)cc1` [4-n-pentylbenzeneboronic acid] yielded a melting point of 83 °C.
Take `N#CCc1ccc(B(O)O)cc1` [4-(cyanomethyl)benzeneboronic acid]: the melting point was 198 °C.
The same measure for `CCCCCCCC/C=C/CCCCCCCC(=O)O` [elaidic acid]: 43 °C; for `CCCCC=O` [valeraldehyde]: -92 °C.
Regarding `O=C(O)c1ccccc1Cl` [2-Chlorobenzoic acid], the melting point was 140 °C.
Consider `Nc1cccc2cnccc12` [5-aminoisoquinoline], for which the melting point amounted to 129 °C.
`COc1cc(Cl)ccc1O` [4-chloro-2-methoxyphenol] registered a melting point of 17 °C.
The same measure for `OB(O)c1c(C(F)(F)F)cccc1C(F)(F)F` [2,6-bis(trifluoromethyl)benzeneboronic acid]: 150 °C.
In the case of `[2H]OC([2H])([2H])C([2H])([2H])[2H]` [(~2~H_5_)Ethan(~2~H)ol], the melting point is -114 °C.
Compound `c1ccc(C(c2ccccc2)c2ccccc2)cc1` [triphenylmethane] gave a melting point of 94 °C.
To `O=C(O)c1cc2ccccc2o1` [benzo[b]furan-2-carboxylic acid] belongs 194 °C; to `Cn1cnc2c1c(=O)[nH]c(=O)n2C` [theobromine], 348 °C.
The same measure for `COc1ccc(C(C)=O)c(OC)c1` [2,4-dimethoxyacetophenone]: 41 °C; for `Cc1cc(C)cc([N+](=O)[O-])c1` [5-nitro-1,3-dimethylbenzene]: 74 °C; for `CC(=O)NS(=O)(=O)c1ccc(N)cc1` [sulfacetamide]: 183 °C.
